# US9023847B2, “Azaheterocyclic compounds” (Merck Patent GmbH, priority 2009, dated 2015)
# Biological target: T1, P70S6K (T412E mutant, Millipore) (Homo sapiens, UniProt P23443, T412E)
# T1 construct: purchased Millipore
# Test: p70S6K enzyme assay
# Assay type: biochemical
# Details: class symbol; 3 nM P70S6K, 24 μM ATP; read-out: IC50 (p70S6K)
# Summary of the method: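 T412E-mutant P70S6K (3 nM) with 24 μM ATP and 1 μM FITC-AHA-AKRRRLSSLRA-OH S6-derived peptide in 100 mM Hepes pH 7.5, 5 mM MgCl2, 1 mM DTT, 0.015% Brij; 90 min at 25° C, EDTA stop. Phosphorylated product and substrate peptide separated and quantified by microfluidic capillary electrophoresis (Caliper LabChip 3000).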
# T1 sequence (P23443 whole entry T412E): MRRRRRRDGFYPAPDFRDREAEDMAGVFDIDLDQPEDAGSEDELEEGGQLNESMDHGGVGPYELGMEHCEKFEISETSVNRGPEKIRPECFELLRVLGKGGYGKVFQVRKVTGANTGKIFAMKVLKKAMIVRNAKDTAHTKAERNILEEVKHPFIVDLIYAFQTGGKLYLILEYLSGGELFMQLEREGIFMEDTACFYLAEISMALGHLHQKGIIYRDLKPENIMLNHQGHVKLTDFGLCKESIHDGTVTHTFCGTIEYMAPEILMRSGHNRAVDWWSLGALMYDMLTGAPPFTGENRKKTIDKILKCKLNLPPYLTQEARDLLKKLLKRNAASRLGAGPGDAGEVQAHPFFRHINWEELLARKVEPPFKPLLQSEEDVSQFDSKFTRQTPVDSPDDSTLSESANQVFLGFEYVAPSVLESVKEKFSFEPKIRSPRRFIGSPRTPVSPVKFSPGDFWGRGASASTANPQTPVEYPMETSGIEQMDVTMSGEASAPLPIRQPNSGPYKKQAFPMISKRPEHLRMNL
row,SMILES,IC50 [nM]
1,"O=C(NCCNCc1ccc(OC(F)(F)F)cc1)c1sccc1Nc1ccnc2[nH]ccc12 [Example 51, 3-(1H-Pyrrolo[2,3-b]pyridin-4-ylamino)-thiophene-2-carboxylic acid [2-(4-trifluoromethoxy-benzylamino)-ethyl]-amide]",< 100
2,"O=C(NCCNCc1ccoc1)c1sccc1Nc1ccnc2[nH]ccc12 [Example 53, 3-(1H-Pyrrolo[2,3-b]pyridin-4-ylamino)-thiophene-2-carboxylic acid {2-[(furan-3-ylmethyl)-amino]-ethyl}-amide]",< 100
3,"O=C(NCCNCc1ccccc1)c1sccc1Nc1ccnc2[nH]ccc12 [Example 29, 3-(1H-Pyrrolo[2,3-b]pyridin-4-ylamino)-thiophene-2-carboxylic acid (2-benzylamino-ethyl)-amide]",< 100
4,"O=C(NCc1ccc(Cl)c(C(F)(F)F)c1)c1sccc1Nc1ccnc2[nH]ccc12 [Example 98, 3-(1H-Pyrrolo[2,3-b]pyridin-4-ylamino)-thiophene-2-carboxylic acid 4-chloro-3-trifluoromethyl-benzylamide]",< 100
5,"O=C(NCCCCO)c1sccc1Nc1ccnc2[nH]ccc12 [Example 31, 3-(1H-Pyrrolo[2,3-b]pyridin-4-ylamino)-thiophene-2-carboxylic acid (4-hydroxy-butyl)-amide]",100 to 1000
6,"O=C(NCCNCc1ccccc1F)c1sccc1Nc1ccnc2[nH]ccc12 [Example 58, 3-(1H-Pyrrolo[2,3-b]pyridin-4-ylamino)-thiophene-2-carboxylic acid [2-(2-fluoro-benzylamino)-ethyl]-amide]",< 100
7,"COc1cccc(C(CN)NC(=O)c2ccsc2Nc2ccnc3[nH]ccc23)c1 (centres unmarked) [Example 127, 2-(1H-Pyrrolo[2,3-b]pyridin-4-ylamino)-thiophene-3-carboxylic acid [2-amino-1-(3-methoxy-phenyl)-ethyl]-amide]",< 100
8,"NC(=O)C[C@@H](NC(=O)c1sccc1Nc1ccnc2[nH]ccc12)c1ccccc1 [Example 120, 3-(1H-Pyrrolo[2,3-b]pyridin-4-ylamino)-thiophene-2-carboxylic acid ((R)-2-carbamoyl-1-phenyl-ethyl)-amide]",< 100
9,"N#CC[C@@H](NC(=O)c1sccc1Nc1ccnc2[nH]ccc12)c1ccccc1 [Example 115, 3-(1H-Pyrrolo[2,3-b]pyridin-4-ylamino)-thiophene-2-carboxylic acid ((R)-2-cyano-1-phenyl-ethyl)-amide]",< 100
10,"O=C(NCCNC(=O)c1sccc1Nc1ccnc2[nH]ccc12)c1ccccc1 [Example 70, 3-(1H-Pyrrolo[2,3-b]pyridin-4-ylamino)-thiophene-2-carboxylic acid (2-benzoylamino-ethyl)-amide]",< 100
11,"COc1ccc(C(CN)NC(=O)c2sccc2Nc2ccnc3[nH]ccc23)cc1OC (centres unmarked) [Example 113, 3-(1H-Pyrrolo[2,3-b]pyridin-4-ylamino)-thiophene-2-carboxylic acid [2-amino-1-(3,4-dimethoxy-phenyl)-ethyl]-amide]",< 100
12,"O=C(NCc1cccnc1)c1sccc1Nc1ccnc2[nH]ccc12 [Example 8, 3-(1H-Pyrrolo[2,3-b]pyridin-4-ylamino)-thiophene-2-carboxylic acid (pyridin-3-ylmethyl)-amide]",100 to 1000
13,"O=C(NCCNCc1ccc2[nH]ccc2c1)c1sccc1Nc1ccnc2[nH]ccc12 [Example 59, 3-(1H-Pyrrolo[2,3-b]pyridin-4-ylamino)-thiophene-2-carboxylic acid {2-[(1H-indol-5-ylmethyl)-amino]-ethyl}-amide]",< 100
14,"Cc1ccc([C@@H](CN)NC(=O)c2sccc2Nc2ccnc3[nH]ccc23)cc1 (stereo in doubt) [Example 122, 3-(1H-Pyrrolo[2,3-b]pyridin-4-ylamino)-thiophene-2-carboxylic acid (2-amino-1-p-tolyl-ethyl)-amide]",< 100
15,"O=C(N[C@H](CO)c1ccccc1)c1sccc1Nc1ccnc2[nH]ccc12 [Example 44, S-[3-(1H-Pyrrolo[2,3-b]pyridin-4-ylamino)-thiophene-2-carboxylic acid (2-hydroxy-1-phenyl-ethyl)-amide]]",< 100
16,"COc1ccccc1C(CN)NC(=O)c1sccc1Nc1ccnc2[nH]ccc12 (centres unmarked) [Example 107, 3-(1H-Pyrrolo[2,3-b]pyridin-4-ylamino)-thiophene-2-carboxylic acid [2-amino-1-(2-methoxy-phenyl)-ethyl]-amide]",< 100
17,"O=C(NC1CCCNC1)c1ccsc1Nc1ccnc2[nH]ccc12 (centres unmarked) [Example 105, 2-(1H-Pyrrolo[2,3-b]pyridin-4-ylamino)-thiophene-3-carboxylic acid piperidin-3-ylamide]",< 100
18,"NCC(NC(=O)c1ccsc1Nc1ccnc2[nH]ccc12)c1cccc(F)c1 (centres unmarked) [Example 108, 2-(1H-Pyrrolo[2,3-b]pyridin-4-ylamino)-thiophene-3-carboxylic acid [2-amino-1-(3-fluoro-phenyl)-ethyl]-amide]",< 100

# Now from value to compound:
row,IC50 [nM],SMILES
1,< 100,"CNCC(NC(=O)c1sccc1Nc1ccnc2[nH]ccc12)c1cccc(F)c1 (centres unmarked) [Example 167, 3-(1H-Pyrrolo[2,3-b]pyridin-4-ylamino)-thiophene-2-carboxylic acid [1-(3-fluoro-phenyl)-2-methylamino-ethyl]-amide]"
2,< 100,"O=C(NCCc1ccc(Br)cc1)c1sccc1Nc1ncnc2[nH]ccc12 [Example 180, 3-(7H-Pyrrolo[2,3-d]pyrimidin-4-ylamino)-thiophene-2-carboxylic acid [2-(4-bromo-phenyl)-ethyl]-amide]"
3,< 100,"CN(C)c1cc(C(=O)Nc2cccc(CNC(=O)c3sccc3Nc3ccnc4[nH]ccc34)c2)ccn1 [Example 162, 2-Dimethylamino-N-[3-({[3-(1H-pyrrolo[2,3-b]pyridin-4-ylamino)-thiophene-2-carbonyl]-amino}-methyl)-phenyl]-isonicotinamide]"
4,< 100,"NCC(NC(=O)c1ccsc1Nc1ccnc2[nH]ccc12)c1ccc(Cl)c(Cl)c1 (centres unmarked) [Example 128, 2-(1H-Pyrrolo[2,3-b]pyridin-4-ylamino)-thiophene-3-carboxylic acid [2-amino-1-(3,4-dichloro-phenyl)-ethyl]-amide]"
5,< 100,"NC[C@@H](NC(=O)c1sccc1Nc1ccnc2[nH]ccc12)c1cccc(F)c1 [Example 171, 3-(1H-Pyrrolo[2,3-b]pyridin-4-ylamino)-thiophene-2-carboxylic acid [(S)-2-amino-1-(3-fluoro-phenyl)-ethyl]-amide]"
6,< 100,"NCC(NC(=O)c1sccc1Nc1ccnc2[nH]ccc12)c1ccc(C(F)(F)F)cc1 (centres unmarked) [Example 132, 3-(1H-Pyrrolo[2,3-b]pyridin-4-ylamino)-thiophene-2-carboxylic acid [2-amino-1-(4-trifluoromethyl-phenyl)-ethyl]-amide]"
7,< 100,"O=C(NCc1cccc(Cl)c1)c1sccc1Nc1ncnc2[nH]ccc12 [Example 173, 3-(7H-Pyrrolo[2,3-d]pyrimidin-4-ylamino)-thiophene-2-carboxylic acid 3-chloro-benzylamide]"
8,100 to 1000,"COC(=O)CNC(=O)c1sccc1Nc1ccnc2[nH]ccc12 [Example 138, {[3-(1H-Pyrrolo[2,3-b]pyridin-4-ylamino)-thiophene-2-carbonyl]-amino}-acetic acid methyl ester]"
